In paper PMC9577195, “Pharmacokinetics, bioavailability, and plasma protein binding study of glytrexate, a novel multitarget antifolate” (Frontiers in Pharmacology, 2022):

What was measured:
[1] = Storage stability of glytrexate in rat plasma (short-term, autosampler, freeze-thaw, long-term); format: in vitro ADME
Protocol: For short-term and long-term stability, plasma samples (LQC and HQC) were kept at room temperature for 8 h and at −20°C for 14 consecutive days, respectively. To evaluate the freeze-thaw stability, plasma samples (n = 6) were investigated through three cycles from −20°C to 25°C, and the stability of the postpreparative samples after 8 h was evaluated in autosampler vials at 4°C. The results were evaluated by calculating the peak area ratio (glytrexate/IS) of the stability samples. If glytrexate is stable in rat plasma, the accuracy (RE) should be within ±15% and the precision (RSD) < 15%.

KB tumor cells = system: KB tumor cells; set-up: method as in Xing et al., 2017; details: ref Xing et al., 2017, read-out: IC50, inhibitory action on KB tumor cells; cited from earlier work
[2] = Metabolic stability in human liver microsomes; format: in vitro ADME; details: 37°C
Protocol: The test tube containing the drug concentration was incubated in a constant temperature water bath at 37°C. Each sample was obtained at 0, 0.5, 1.0, 1.5, 2.0, and 3.0 h, and the drug concentration was measured.
The metabolic stability of glytrexate was determined by incubation with human liver microsomes at 37°C. The reaction in the incubation system containing 10 μl of glytrexate (1 mg/ml), 50 μl of liver microsomes (1 mg/ml), and 10 μl of PBS (pH 7.4) was initiated by the addition of 30 μl of NADPH after 5 min of preincubation. The total incubation volume was 100 μl. The reaction was terminated at predefined time points (0, 0.5, 1, 1.5, 2, and 3 h). The incubations were conducted in triplicate.
Fifty microliters of the above solution was accurately drawn at different incubation time points, and 155 μl of ice-cold methanol (1% formic acid) and 5 μl of IS solution were added. The mixture was vortexed for 60 s and centrifuged at 14,000 rpm for 10 min. […] An appropriate amount of the supernatant was placed into the sample vial, and analyzed. […]
All samples were analyzed using the established LC‒MS/MS method, and MultiQuant 3.0 software was used for data processing. The glytrexate concentration at each time point was calculated, the remaining percentage was calculated, and the concentration change trend was analyzed.

[3] = Plasma protein binding rate by ultrafiltration, rat plasma; format: in vitro ADME
Protocol: (§1) The glytrexate stock solution was diluted with 20% methanol (1% formic acid) to three mass concentrations of 50, 100, and 200 μg/ml for use. One hundred microliters of glytrexate solution of the corresponding concentration (3 duplicates each in parallel) was added to 900 μl of rat/human plasma, vortexed and mixed well to prepare plasma samples with plasma concentrations of 5, 10, and 20 μg/ml.
(§2) The plasma sample was placed in a constant temperature water bath at 37°C for a certain period to obtain an incubation solution. After the incubation solution was removed, it was placed on ice to maintain a low temperature, transferred to a filtrate tube (500 μl), and placed in a low-temperature refrigerated centrifuge at 4°C and 14,000 rpm for 20 min to obtain filtrate.
(§3) The test tube containing the drug concentration was incubated in a constant temperature water bath at 37°C. Each sample was obtained at 10 min, 30 min, 60 min, 120 min, 240 min, and 360 min and the drug concentration before and after ultrafiltration was determined. The plasma protein binding rate (%) = [(Cincubation solution-CUltrafiltrate)/Cincubation solution]×100%. GraphPad Prism 8 software was used to perform a one-way analysis of variance on the plasma protein binding rate of glytrexate between different mass concentrations in the same species.

[4] = Plasma protein binding rate by ultrafiltration, human plasma; format: in vitro ADME
Protocol: as §1, §2, §3

[5] = 4°C for 8 h in rat plasma, spiked 5 ng/ml
[6] = 4°C for 8 h in rat plasma, spiked 1600 ng/ml
[7] = room temperature for 8 h in rat plasma, spiked 5 ng/ml
[8] = room temperature for 8 h in rat plasma, spiked 1600 ng/ml
[9] = three freeze‒thaw cycles in rat plasma, spiked 5 ng/ml
[10] = three freeze‒thaw cycles in rat plasma, spiked 1600 ng/ml
[11] = −20°C for 14 days in rat plasma, spiked 5 ng/ml
[12] = −20°C for 14 days in rat plasma, spiked 1600 ng/ml
[13] = 5 μg/ml, 37°C, 30 min incubation, ultrafiltration
[14] = 10 μg/ml, 37°C, 30 min incubation, ultrafiltration
[15] = 20 μg/ml, 37°C, 30 min incubation, ultrafiltration

% Deviation after storage [1, 5]: −11.50%
Mean measured concentration after storage [1, 5]: 4.43 ± 0.21 ng/mL
% Deviation after storage [1, 6]: −2.11%
Mean measured concentration after storage [1, 6]: 1566.21 ± 100.13 ng/mL
% Deviation after storage [1, 7]: −10.23%
Mean measured concentration after storage [1, 7]: 4.49 ± 0.40 ng/mL
% Deviation after storage [1, 8]: −0.82%
Mean measured concentration after storage [1, 8]: 1586.82 ± 103.89 ng/mL
% Deviation after storage [1, 9]: −2.27%
Mean measured concentration after storage [1, 9]: 4.89 ± 0.68 ng/mL
% Deviation after storage [1, 10]: −1.81%
Mean measured concentration after storage [1, 10]: 1571.07 ± 105.54 ng/mL
% Deviation after storage [1, 11]: −6.40%
Mean measured concentration after storage [1, 11]: 4.68 ± 0.40 ng/mL
% Deviation after storage [1, 12]: −2.01%
Mean measured concentration after storage [1, 12]: 1567.82 ± 112.14 ng/mL
metabolic stability in human liver microsomes (in words) ([2]; up to 3 h): good microsomal stability
half-life at 0.1 mg/ml ([2]; human, liver microsomes, pH 7.4, NADPH, regression of ln remaining vs incubation time, read-out: half-life (t1/2) in human liver microsomes): 1.83 h
fraction unbound at 30 min, 5 μg/ml [3, 13]: 0.863
fraction unbound at 30 min, 10 μg/ml [3, 14]: 0.813
fraction unbound at 30 min, 20 μg/ml [3, 15]: 0.947
fraction unbound at 30 min ([3]; over 5, 10 and 20 μg/ml): > 0.7
fraction unbound at 30 min, 5 μg/ml [4, 13]: 0.758
fraction unbound at 30 min, 10 μg/ml [4, 14]: 0.754
fraction unbound at 30 min, 20 μg/ml [4, 15]: 0.807
fraction unbound ([4]; over 5, 10 and 20 μg/ml): ~0.75
Compound: Nc1nc2[nH]c(CC(=O)NCC(=O)N[C@@H](CCC(=O)O)C(=O)O)cc2c(=O)[nH]1 [glytrexate, (S)-2-{2-[2-(2-amino-4-oxo-4,7-dihydro-3H-pyrrolo [2,3-d]pyrimidin-6-yl)-acetylamino]-acetylamino}-pentanedioic acid]
IC50 (KB tumor cells): 0.078 nM
